In this test the test system is GDF8 signaling (p-SMAD-3 (Ser423/425)). The experiment in a line: AlphaScreen SureFire SMAD3 (p-Ser423/425) assay, GDF8-stimulated cells (GDF pSMAD). It is filed as cell-based. Particulars: Mus musculus, MPC-11, MPC11; GDF8-stimulated; p-SMAD3 AlphaScreen; read-out: GDF pSMAD (MPC11) (inhibition of GDF8 signaling).
As to `Fc1cnc(-c2ccc(F)c(Cl)c2)c(-c2ccn3ncnc3c2)c1` [compound 860, 7-(2-(3-Chloro-4-fluorophenyl)-5-fluoropyridin-3-yl)-[1,2,4]triazolo[1,5-a]pyridine], the IC50 was determined as 9980 nM. With `Fc1cnc(-c2cc(Cl)c(F)cc2F)c(-c2ccn3ncnc3c2)c1` [compound 861, 7-(2-(5-Chloro-2,4-difluorophenyl)-5-fluoropyridin-3-yl)-[1,2,4]triazolo[1,5-a]pyridine] the figure was 4010 nM; with `Fc1cnc(-c2cc(Cl)ccc2F)c(-c2ccn3ncnc3c2)c1` [compound 862, 7-(2-(5-Chloro-2-fluorophenyl)-5-fluoropyridin-3-yl)-[l 1,2,4]triazolo[1,5-a]pyridine], 1840 nM; with `Fc1cnc(-c2cccc(C(F)(F)F)c2)c(-c2ccn3ncnc3c2)c1` [compound 863, 7-(2-(3-((Difluoro-13-methyl)-12-fluoranyl)phenyl)-5-fluoropyridin-3-yl)-[1,2,4]triazolo[1,5-a]pyridine], 5890 nM.

With `Cc1cnc(-c2ccc(F)c(Cl)c2)c(-c2ccn3ncnc3c2)c1` [compound 864, 7-(2-(3-Chloro-4-fluorophenyl)-5-methylpyridin-3-yl)-[1,2,4]triazolo[1,5-a]pyridine], the IC50 came out at 1540 nM.

As for `Cc1cnc(-c2cc(Cl)c(F)cc2F)c(-c2ccn3ncnc3c2)c1` [compound 865, 7-(2-(5-Chloro-2,4-difluorophenyl)-5-methylpyridin-3-yl)-[l 1,2,4]triazolo[1,5-a]pyridine], the IC50 stood at 608 nM.

In the case of `Cc1cnc(-c2cc(Cl)ccc2F)c(-c2ccn3ncnc3c2)c1` [compound 866, 7-(2-(5-Chloro-2-fluorophenyl)-5-methylpyridin-3-yl)-[1,2,4]triazolo[1,5-a]pyridine], the IC50 came out at 251 nM. Next, `Cc1cnc(-c2cccc(C(F)(F)F)c2)c(-c2ccn3ncnc3c2)c1` [compound 867, 7-(2-(3-((Difluoro-13-methyl)-12-fluoranyl)phenyl)-5-methylpyridin-3-yl)-[1,2,4]triazolo[1,5-a]pyridine]: 752 nM; `Cc1cnc(-c2cccc(Cl)c2)c(-c2ccn3ncnc3c2)c1` [compound 868, 7-(2-(3-Chlorophenyl)-5-methylpyridin-3-yl)-[1,2,4]triazolo[1,5-a]pyridine]: 404 nM; `Clc1ccc(Cl)c(-c2ncccc2-c2ccc3ncsc3c2)c1` [compound 869, 6-(2-(2,5-Dichlorophenyl)pyridin-3-yl)benzo[d]thiazole]: 688 nM. With `Cn1cnc2ccc(-c3cccnc3-c3cc(Cl)ccc3Cl)cc21` [compound 870, 6-(2-(2,5-Dichlorophenyl)pyridin-3-yl)-1-methyl-1H-benzo[d]imidazole] the figure was 557 nM; with `Clc1ccc(Cl)c(-c2ncccc2-c2ccc3nc[nH]c3c2)c1` [compound 871, 6-(2-(2,5-Dichlorophenyl)pyridin-3-yl)-1H-benzo[d]imidazole], 1830 nM; with `Clc1ccc(Cl)c(-c2ncccc2-c2ccc3nccn3c2)c1` [compound 872, 6-(2-(2,5-Dichlorophenyl)pyridin-3-yl)imidazo[1,2-a]pyridine], 776 nM.

Consider `Clc1ccc(Cl)c(-c2ncccc2-c2ccn3ncnc3c2)c1` [compound 873, 7-(2-(2,5-Dichlorophenyl)pyridin-3-yl)-[1,2,4]triazolo[1,5-a]pyridine], for which the IC50 was 1190 nM. Next, `Fc1cc(F)c(-c2ncccc2-c2ccn3ncnc3c2)cc1F` [compound 874, 7-(2-(2,4,5-Trifluorophenyl)pyridin-3-yl)-[1,2,4]triazolo[1,5-a]pyridine]: 6470 nM. With `Fc1cc(-c2ncccc2-c2ccn3ncnc3c2)cc(F)c1F` [compound 875, 7-(2-(3,4,5-Trifluorophenyl)pyridin-3-yl)-[1,2,4]triazolo[1,5-a]pyridine] the figure was 12400 nM; with `Cc1ccc(Cl)c(-c2ncccc2-c2ccn3ncnc3c2)c1` [compound 876, 7-(2-(2-Chloro-5-methylphenyl)pyridin-3-yl)-[1,2,4]triazolo[1,5-a]pyridine], 2370 nM; with `Cc1ccc(C(F)(F)F)cc1-c1ncccc1-c1ccn2ncnc2c1` [compound 878, 7-(2-(2-Methyl-5-(trifluoromethyl)phenyl)pyridin-3-yl)-[1,2,4]triazolo[1,5-a]pyridine], 10200 nM. For `FC(F)(F)c1cccc(-c2ncccc2-c2ccn3ncnc3c2)c1` [compound 879, 7-(2-(3-(Trifluoromethyl)phenyl)pyridin-3-yl)-[1,2,4]triazolo[1,5-a]pyridine], the IC50 worked out at 1480 nM. As to `COc1cccc(-c2ncccc2-c2ccn3ncnc3c2)c1` [compound 880, 7-(2-(3-Methoxyphenyl)pyridin-3-yl)-[1,2,4]triazolo[1,5-a]pyridine], the IC50 amounted to 808 nM.

For `FC(F)(F)Oc1cccc(-c2ncccc2-c2ccn3ncnc3c2)c1` [compound 882, 7-(2-(3-(Trifluoromethoxy)phenyl)pyridin-3-yl)-[1,2,4]triazolo[1,5-a]pyridine], the IC50 was 1120 nM. As for `FC(F)Oc1cccc(-c2ncccc2-c2ccn3ncnc3c2)c1` [compound 883, 7-(2-(3-(Difluoromethoxy)phenyl)pyridin-3-yl)-[1,2,4]triazolo[1,5-a]pyridine], the IC50 is 512 nM. With `Fc1ccc(OC(F)(F)F)cc1-c1ncccc1-c1ccn2ncnc2c1` [compound 884, 7-(2-(2-Fluoro-5-(trifluoromethoxy)phenyl)pyridin-3-yl)-[1,2,4]triazolo[1,5-a]pyridine] the figure was 997 nM.

Consider `CNc1ncnc2ccc(-c3cccnc3-c3ccc(F)c(Cl)c3)cc12` [compound 886, 6-(2-(3-Chloro-4-fluorophenyl)pyridin-3-yl)-N-methylquinazolin-4-amine], for which the IC50 came to 253 nM. Next, `Cn1c(=O)cnc2ccc(-c3cccnc3-c3ccc(F)c(Cl)c3)cc21` [compound 887, 7-(2-(3-Chloro-4-fluorophenyl)pyridin-3-yl)-1-methylquinoxalin-2(1H1)-one]: 1750 nM.

With `Cc1cc(-c2ncccc2-c2ccc3ncc(=O)n(C)c3c2)ccc1F` [compound 888, 7-(2-(4-Fluoro-3-methylphenyl)pyridin-3-yl)-1-methylquinoxalin-2(1H)-one], the IC50 came to 4050 nM. On to `Cn1c(=O)cnc2ccc(-c3cccnc3-c3cc(Cl)ccc3F)cc21` [compound 889, 7-(2-(5-Chloro-2-fluorophenyl)pyridin-3-yl)-1-methylquinoxalin-2(1H)-one], for which the IC50 was found to be 1520 nM. With `O=c1cnc2ccc(-c3cccnc3-c3ccc(F)c(Cl)c3)cc2[nH]1` [compound 890, 7-(2-(3-Chloro-4-fluorophenyl)pyridin-3-yl)quinoxalin-2(1H)-one] the figure was 1300 nM; with `Cc1cc(-c2ncccc2-c2ccc3ncc(=O)[nH]c3c2)ccc1F` [compound 891, 7-(2-(4-Fluoro-3-methylphenyl)pyridin-3-yl)quinoxalin-2(1H)-one], 632 nM; with `O=c1cnc2ccc(-c3cccnc3-c3cc(Cl)ccc3F)cc2[nH]1` [compound 892, 7-(2-(5-Chloro-2-fluorophenyl)pyridin-3-yl)quinoxalin-2(1H)-one], 426 nM. With `Fc1ccc(-c2ncccc2-c2ccn3nccc3n2)cc1C1CC1` [compound 896, 5-(2-(3-Cyclopropyl-4-fluorophenyl)pyridin-3-yl)pyrazolo[1,5-a]pyrimidine] the figure was 93.6 nM.

(Values after US10858335B2 (Rigel Pharmaceuticals, Inc., priority 2014, dated 2020).)
